Test results taken from patent publication US20230089014A1, “COMPOUND USED AS KINASE INHIBITOR AND USE THEREOF” (TYK MEDICINES (ZHENGZHOU), INC., priority 2020, published 2023).

How the values were obtained:
Format in all cases: biochemical
EGFR D770-N771insNPG = EGFR D770-N771insNPG (Homo sapiens, UniProt P00533, INS770NPG); experiment: Kinase activity assay (33P-ATP filter-binding) on EGFR exon 20 insertion mutant kinase D770-N771insNPG; conditions: ATP at Km
Description: (§1) Screening of biological activity of compounds will be performed in duplicate at 10 concentrations.
(§2) Each sample was prepared as a solution with a concentration of 10 mM.
(§3) 1) Basic buffer solution and quench buffer solution for experimental kinases were prepared.
(§4) 2) Compounds for experimental kinases were prepared.
(§5) Compounds for test were dissolved to specific concentrations in 100% dimethyl sulfoxide. (Serial) dilutions were performed with Integra Viaflo Assist assisted DMSO.
(§6) The kinase was added to freshly prepared basic reaction buffer, and any desired cofactors were added to the above substrate solution.
(§7) The EGFR exon 20 insertion mutant kinase was added to the substrate solution and mixed gently; the compound in 100% dimethyl sulfoxide was fed into the kinase reaction mixture by using Acoustic technology (Echo550; nanoliter range) and incubated for 20 minutes at room temperature.
(§8) 33P-ATP (Specific activity 10 Ci/l) was added to the reaction mixture to start the reaction, incubated at room temperature for 2 hours, and the radioactivity was detected by the filter-binding method.
(§9) Kinase activity data are expressed as a percentage of remaining kinase activity in the test sample compared to the medium (dimethyl sulfoxide) reaction. IC50 values and curve fitting were obtained by using Prism ([sequence] software).

EGFR A763_Y764insFHEA = EGFR A763_Y764insFHEA (Homo sapiens, UniProt P00533, INS763FHEA); experiment: Kinase activity assay (33P-ATP filter-binding) on EGFR exon 20 insertion mutant kinase A763_Y764insFHEA; conditions: for IC50: ATP at Km
Description: as §1, §2, §3, §4, §5, §6, §7, §8, §9

Her2 A775-G776insYVMA = Her2 A775-G776insYVMA (Homo sapiens, UniProt P04626, INS775YVMA); experiment: Kinase activity assay (33P-ATP filter-binding) on Her2 exon 20 insertion mutant kinase A775-G776insYVMA; conditions: for IC50: ATP at Km
Her2 A775-G776insYVMA, sequence (P04626 with tags, fused parts or gaps INS775YVMA limits assumed): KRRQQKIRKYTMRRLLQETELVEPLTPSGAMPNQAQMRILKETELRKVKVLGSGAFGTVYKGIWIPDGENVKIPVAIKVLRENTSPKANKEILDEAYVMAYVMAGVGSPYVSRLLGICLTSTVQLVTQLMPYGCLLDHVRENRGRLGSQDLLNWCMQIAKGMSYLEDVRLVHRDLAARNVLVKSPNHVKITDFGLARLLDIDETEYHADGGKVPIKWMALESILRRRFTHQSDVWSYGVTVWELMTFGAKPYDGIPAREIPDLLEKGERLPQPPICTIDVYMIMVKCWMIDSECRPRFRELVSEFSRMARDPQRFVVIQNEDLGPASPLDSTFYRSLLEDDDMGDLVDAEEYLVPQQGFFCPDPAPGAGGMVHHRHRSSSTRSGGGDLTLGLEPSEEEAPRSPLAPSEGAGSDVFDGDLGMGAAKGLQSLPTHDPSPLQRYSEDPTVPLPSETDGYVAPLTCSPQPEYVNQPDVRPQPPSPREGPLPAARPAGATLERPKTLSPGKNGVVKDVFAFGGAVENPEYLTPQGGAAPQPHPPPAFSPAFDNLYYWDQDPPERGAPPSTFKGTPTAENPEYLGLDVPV
Description: as §1, §2, §3, §4, §5, §6, §7, §8, §9

Row | SMILES | IC50 (EGFR D770-N771insNPG; class symbols) [nM] | IC50 (EGFR A763_Y764insFHEA; class symbols) [nM] | IC50 (Her2 A775-G776insYVMA; class symbols) [nM] | IC50 (Her2 A775-G776insYVMA) [nM] | IC50 (EGFR D770-N771insNPG) [nM] | IC50 (EGFR A763_Y764insFHEA) [nM] | inhibitory activity on Her2 insertion mutant kinase relative to that of poziotinib (Her2 A775-G776insYVMA) | activity relative to that of poziotinib (EGFR A763_Y764insFHEA; EGFR exon 20 insertion mutant kinase, mutant not specified)
1 | C=CC(=O)N1C2CCC1CC(C(=O)c1cc3c(Nc4ccc(Cl)c(Cl)c4F)ncnc3cc1OC)C2 (stereo not drawn) [Example 11] | 4 to 40 | 4 to 40 | 4 to 40 | – | – | – | – | –
2 | C=CC(=O)N1C2CC(Sc3cc4c(Nc5ccc(Cl)c(Cl)c5F)ncnc4cc3OC)CC1C2 (stereo not drawn) [Example 8] | 4 to 40 | 4 to 40 | – | – | – | – | – | –
3 | C=CC(=O)N1CCC(Oc2cc3c(Nc4ccc(Cl)c(Cl)c4F)ncnc3cc2OC)CC1 [Poziotinib, reference compound] | – | – | 4 to 40 | 4.79 | – | – | – | –
4 | C=CC(=O)N1CCC(C(F)(F)c2cc3c(Nc4ccc(Cl)c(Cl)c4F)ncnc3cc2OC)CC1 [Example 5] | < 4 | < 4 | < 4 | 1.02 | 1.54 | 2.19 | about 4 times | –
5 | C=CC(=O)N1CC(C(F)(F)c2cc3c(Nc4ccc(Cl)c(Cl)c4F)ncnc3cc2OC)C1 [Example 3] | < 4 | < 4 | < 4 | 2.61 | 0.513 | 1.32 | – | 2-3 times
6 | C=CC(=O)N1CC2(CC(Oc3cc4c(Nc5ccc(Cl)c(Cl)c5F)ncnc4cc3OC)C2)C1 [Example 13] | < 4 | 4 to 40 | < 4 | – | – | – | – | –
7 | C=CC(=O)N1CC2CC(Oc3cc4c(Nc5ccc(Cl)c(Cl)c5F)ncnc4cc3OC)CC2C1 (stereo not drawn) [Example 7] | < 4 | 4 to 40 | < 4 | 1.84 | 0.833 | 4.04 | – | –
8 | C=CC(=O)N1CC2C(C1)C2Oc1cc2c(Nc3ccc(Cl)c(Cl)c3F)ncnc2cc1OC (stereo not drawn) [Example 10] | < 4 | < 4 | – | – | – | – | – | –
9 | C=CC(=O)N1C[C@H]2C[C@H](Oc3cc4c(Nc5ccc(Cl)c(Cl)c5F)ncnc4cc3OCCOC)C[C@H]2C1 [Example 16] | < 4 | < 4 | < 4 | – | – | – | – | –
10 | C=CC(=O)N1CC(C(=O)c2cc3c(Nc4ccc(Cl)c(Cl)c4F)ncnc3cc2OC)C1 [Example 4] | < 4 | 4 to 40 | – | – | 3.04 | 11.8 | – | –
11 | C=CC(=O)N1C[C@H]2C[C@H](Oc3cc4c(Nc5ccc(Cl)c(Cl)c5F)ncnc4cc3OCCCN3CCOCC3)C[C@H]2C1 [Example 17] | < 4 | 4 to 40 | < 4 | – | – | – | – | –
12 | C=CC(=O)N1CC2CC1CC2C(=O)c1cc2c(Nc3ccc(Cl)c(Cl)c3F)ncnc2cc1OC (stereo not drawn) [Example 9] | 4 to 40 | 4 to 40 | 4 to 40 | – | – | – | – | –
13 | C=CC(=O)N1CC2CN(c3cc4c(Nc5ccc(Cl)c(Cl)c5F)ncnc4cc3OC)CC2C1 (stereo not drawn) [Example 1] | < 4 | 4 to 40 | – | – | 1.61 | 6.68 | – | –
14 | C=CC(=O)N1CCC(C(=O)c2cc3c(Nc4ccc(Cl)c(Cl)c4F)ncnc3cc2OC)CC1 [Example 6] | 4 to 40 | 4 to 40 | – | – | 4.51 | 16.2 | – | –
15 | COc1cc2ncnc(Nc3ccc(Cl)c(Cl)c3F)c2cc1N1CCCC1 [Example 2] | < 4 | < 4 | – | – | 1.65 | 3.03 | – | –
